# From US5369111A, “Modulator agent and use thereof” (University of Vermont, priority 1992, dated 1994)
# What was measured:
# RCC-5 cells [1] = experiment: Inhibition of population growth (cytotoxicity), rat colon adenocarcinoma RCC-5; type: cell-based; details: Rattus norvegicus; RCC-5, 72 h
# Text: (§1) The analogs were examined in a panel of tumor cell lines of both intrinsic and acquired drug resistance, as described in Table 1. The rat colon adenocarcinoma cell lines RCC-2 and RCC-5 (ref. 13) were maintained in Ham's F12 medium supplemented with 5% heat-inactivated, fetal bovine serum (Sterile Systems. Hyclone, Logan, Utah). The two rat colon cancer cell lines differ in their degree of cellular differentiation; whereas the RCC-2 cell line is undifferentiated, the RCC-5 cell line is highly mucinous. The human epidermoid carcinoma cell line KB-3-1 and its MDR variant KB-Vl, selected by VBL treatment (ref. 14; courtesy of M. Gottesman. National Cancer Institute), was maintained in DMEM medium supplemented with 10%, heat-inactivated, fetal bovine serum. The murine sarcoma cell line […] and its MDR strains A3 and A10 selected by ADM treatment (ref. 15; courtesy of T. Tritton, Dept. Pharmacology, Univ. Vermont). were maintained in DMEM medium supplemented with 10% heat-inactivated, horse serum (Hazelton Biolog. Lenexa, Kans.). Stock cultures were subcultured twice weekly upon reaching the late exponential phase of population growth: population doubling times were 18-24 h. Antibiotics were not used in stock or experimental cultures. The MDR cell strains were grown in drug-free media for 48 h prior to experimental use.
# (§2) Mid-exponential cultures were used for all assays. The RCC-2 and RCC-5 cell lines were seeded into 24-well plates at 2×10^4 cells/well and allowed to attach to the substratum for 16-18 h prior to treatment. The S180 cell lines were seeded into culture tubes at 1×10^5 cells/ml and treated immediately. Cytotoxicity was determined by quantitation of population growth after 72 h incubation by electronic particle counter (Coulter Electronics, Hialeah, Fla.). The human tumor cell lines were used in a clonogenic assay for cytotoxicity. Cells were seeded at 300 cells/dish, incubated overnight and then treated. Colonies were scored 7-11 days later. In all assays of analog modulation of drug sensitivity, the analog was added minutes prior to the addition of cytotoxic drug.
# KB-V1 cells = experiment: Clonogenic assay for cytotoxicity, MDR variant KB-V1; type: cell-based, human
# Text: as §1, §2
# FIG. 10 represents the potency of the analog C-20'-deoxy deethyl vincovaline as a modulator of the drug sensitivity of various cell lines: the parental S180 cell line: the two rat colon cancer cell lines, RCC-2 and RCC-5; and the human epidermoid carcinoma cell line KB-3-1 and its MDR cell strain KB-V1, which expresses very high levels of drug resistance (200-500 fold). The enhancement of sensitivity was calculated as the sensitivity index =IC50 of the drug alone divided by the IC50 of the drug+analog. The drugs examined were ADM (o), VBL (Δ), and VCR (.quadrature.). The cytotoxicity of drug and analog treatments in the KB cell lines were measured by cloning efficiencies. The arrows denote the non-toxic concentration limit of the analog in each cell line.
# RCC-2 cells [2] = experiment: Inhibition of population growth (cytotoxicity), rat colon adenocarcinoma RCC-2; type: cell-based; details: Rattus norvegicus; RCC-2, 72 h
# Text: as §1, §2
# KB-3-1 cells = experiment: Clonogenic assay for cytotoxicity, KB-3-1 parental; type: cell-based; details: Homo sapiens
# Text: as §1, §2
# S180/A3 cells [3] = experiment: Inhibition of population growth (cytotoxicity), MDR strain S180/A3; type: cell-based, mouse
# Text: as §1, §2
# P388 R cells = experiment: Viability (MTT test) of P388 R cells; type: cell-based, mouse
# Text: The sensitization of C-20'-deoxy C-20'-deethyl vincovaline (D-DEV) has been tested on sensitive and resistants P388 cell lines originating from mouse lympnoma.
# The resistance to anticancerous drug has been induced on DBA2 mouses bearing P388 cells ascites and maintained by treatment with adryamycin.
# This study has been carried out at least in triplicate.
# S180 cells, parental [4] = experiment: Inhibition of population growth (cytotoxicity), S180 sarcoma, parental; type: cell-based, mouse; details: Mus musculus; for IC50: S-180
# Text: as §1, §2
# S180/A10 cells [5] = experiment: Inhibition of population growth (cytotoxicity), MDR strain S180/A10; type: cell-based, mouse; details: 4320 min
# Text: as §1, §2
# RCC-2 cells [6] = experiment: Modulation of intrinsic drug resistance, RCC-2; type: cell-based, rat; details: IC50 drug alone / IC50 drug + modulator, at nontoxic concentration limit
# Protocol: as §2
# (§3) *calculated as the IC50 of the drug alone divided by the IC50 o
# (§4) the [drug modulator] combination. Data are presented from tretments with
# (§5) the nontoxic concentration limit of each analog as noted.
# S180/A10 cells [7] = experiment: Modulator potency in MDR cells: reversal of acquired resistance, S180/A10; type: cell-based, murine
# Protocol: as §2
# (§6) To evaluate the ability of vindoline and the two diastereoisomeric VBL analogs to modulate the MDR phenotype (acquired resistance) of the A3 and A10 cell stains, we determined the concentration of compound required to restore drug sensitivities to parental levels. This was done by exposing the MDR cell line to a concentration range of modulator in the presence VBL, VCR and ADM at the respective IC70s of the parental cell line. The cytotoxicity curves for A3 and A10 cells, shown in FIG. 5, are distinctive among the three vinca alkaloids examined. In each cell line, there was a minimum concentration of modulator that elicited 70% growth inhibition for each drug - i.e. the reversing concentration.
# (§7) *The minimal concentration of modulator required to restore the drug
# (§8) sensitivity of S180/MDR cell strains to that of parental S180 cells. Data
# (§9) are the averages of 2-3 separate experiments, S.D. ≤20%.
# [8] = Inhibition of population growth (cytotoxicity), rat colon adenocarcinoma RCC-5; type: cell-based; details: rat, rcc-5 cells; RCC-5; Table III; read-out: Modulator concentration (nontoxic concentration limit of the analog)
# Text: as §1, §2
# [9] = system: S180/MDR cell system and rat colon cancer cell lines; experiment: Cytotoxicity in the S180/MDR cell system and the rat colon cancer cell lines; type: cell-based, mouse; details: S-180, 72 h
# Text: as §1, §2
# RCC-5 cells [10] = experiment: Modulation of intrinsic drug resistance, RCC-5; type: cell-based, rat; details: RCC-5; IC50 drug alone / IC50 drug + modulator, at nontoxic concentration limit
# Protocol: as §2, §3, §4, §5
# FIG. 9 represents the modulation of VCR sensitivity in the RCC-12 (A) and RCC-5 (B) cell lines by the analog C-20'-deoxy deethyl vincovaline. Population growth was determined after 72 hours incubation in the absence (o), or presence of 10 μM (o), 20 μM (Δ), or 50 μM of analog. Data presented are from a typical experiment.
# [11] = Inhibition of population growth (cytotoxicity), rat colon adenocarcinoma RCC-2; type: cell-based; details: rat, rcc-2 cells; RCC-2; Table III; read-out: Modulator concentration (nontoxic concentration limit of the analog)
# Text: as §1, §2
# S180/A3 cells [12] = experiment: Modulator potency in MDR cells: reversal of acquired resistance, S180/A3; type: cell-based, murine
# Protocol: as §2, §6, §7, §8, §9
# S180 cells, parental [13] = experiment: Modulation of intrinsic drug resistance, parental S180; type: cell-based, murine; details: S180; IC50 drug alone / IC50 drug + modulator, at nontoxic concentration limit
# Protocol: as §2
# The ability of the compounds to modulate drug sensitivity in parental cells was studied over a range of concentrations of each compound, from 10^-6 M to the non-toxic (IC10-20) or solubility limit. […] From such experiments, we determined a sensitivity index derived from the IC50 of the drug without modulator treatment divided by the drug IC50 at each concentration of modulator.
# When the sensitivity index for each drug, VBL, VCR and ADM is plotted versus the modulator concentration (FIG. 4), we can compare the relative potencies of the compounds as modulators of drug toxicity to the parental S180 cells.
# as §3, §4
# FIG. 4 represents the potency of the vinca alkaloid compounds as modulators of drug sensitivity in S180 cells. The enhancement of sensitivity was calculated as the sensitivity index=IC50 of the drug alone divided by the IC50 of the drug+modulator. The IC50s for ADM (o) VBL (Δ), or VCR (.quadrature.) were determined over a concentration range of each modulator from data such as those depicted in FIG. 3. The values presented were averaged from duplicate samples of two separate experiments, S.D. <15% of the mean.
# [14] = system: S180 MDR cell strains A3 and A10; experiment: Modulation of acquired drug resistance in the S180 MDR cell strains A3 and A10; type: cell-based, murine; details: VBL, VCR, ADM
# Protocol: as §2, §6
# FIG. 5 represents the modulation of multidrug resistance in the MDR cell strains by the vinca alkaloids. Vindoline (A), vincovaline (B), or the analog C-20'-deoxy vincovaline (C) was added, at various concentrations, to A3 (closed symbols) or A10 (opened symbols) cell cultures containing the parental IC70 of each drug: 2.0×10^-7 M. ADM (circles: 1.5×10^-8 M VBL (triangles); and 4.5×10^-8 M; VCR (squares). Population growth was determined 72 hours later.
# FIG. 6 represents the relationship between cellular drug resistance level and the minimal modulator concentration required for complete reversal of drug resistance. The drugs examined were ADM (o), VBL (Δ), and VCR (.quadrature.). The amount (concentration) of modulator, necessary to reverse each level of drug resistance contained in the A3 and A10 cell lines, was determined from data such as those of FIG. 5. The values presented were averaged from duplicate samples of two separate experiments, S.D.<15% of the mean. The arrows denote the non-toxic concentration limit for the modulator; in the case of Vincovaline this value is dependent on the MDR cell strain, 2×10^-5 M, A3; 5×10^-5 M. A10.
# FIG. 11 represents the modulation of multidrug resistance in the S180 MDR cell strains A3 and A10. The cellular drug resistance level is plotted against the minimal concentration of C-20'-deoxy deethyl vincovaline required for the complete reversal of drug resistance to ADM (o), VBL (Δ), and VCR (.quadrature.). In the case of high level ADM resistance […], the sensitivity of the cells was restored to 80% of the parental value. The arrow denotes the non-toxic concentration limit of the analog.
# [15] = system: parental cell lines (S180, RCC-2, RCC-5); experiment: Modulation of intrinsic resistance in the parental cell lines (S180, RCC-2, RCC-5); type: cell-based, mouse, rat
# Protocol: as §2, §3, §4, §5
# [16] = Inhibition of population growth (cytotoxicity), S180 sarcoma, parental; type: cell-based, mouse; details: mouse, s180 cells; S180; Table III; read-out: Modulator concentration (nontoxic concentration limit of the analog)
# Text: as §1, §2
smiles,measurement,setting,value
"CC[C@]1(O)C[C@@H]2CN(CCc3c([nH]c4ccccc34)[C@@](C(=O)OC)(c3cc4c(cc3OC)N(C)[C@H]3[C@@](O)(C(=O)OC)[C@H](OC(C)=O)[C@]5(CC)C=CCN6CC[C@]43[C@@H]65)C2)C1 [VBL, vinblastine]",IC50,RCC-5 cells [1],8 nM
same,resistance of KB-V1 to the drug,KB-V1 cells,≥ 200 fold
same,Relative resistance,"KB-V1 cells; IC50 in KB-V1 divided by IC50 of parental, Table I",200
same,IC50,RCC-2 cells [2],3 nM
same,IC50,KB-3-1 cells,1 nM
same,Relative resistance,"S180/A3 cells [3]; A3, IC50 resistant / IC50 parental, Table II, 4320 min",3
same,Relative resistance,"S180/A3 cells [3]; IC50 in S180/A3 divided by IC50 of parental, Table I",3
same,vinblastine cytotoxicity towards P388 R cells,"P388 R cells; 0.00055 to 0.11 μM, 24 hours",lack of vinblastine cytotoxicity
same,resistance of P388 R cells to cytotoxic activity of the drug,P388 R cells; FIGS. 12 to 14,resistance of P388 R cells to cytotoxic activity
same,IC70,"S180 cells, parental [4]; S-180, 72 h, parental S180",15 nM
same,IC50,"S180 cells, parental [4]; S180, parental, Table II",8 nM
same,IC50,"S180 cells, parental [4]; S180 parental, 72 h, Table I",8 nM
same,Relative resistance,"S180/A10 cells [5]; A10, IC50 resistant / IC50 parental, Table II",15
same,Relative resistance,"S180/A10 cells [5]; IC50 in S180/A10 divided by IC50 of parental, Table I",15
"CC[C@]12C=CCN3CC[C@@]4(c5cc([C@]6(C(=O)OC)C[C@@H]7CCCN(CCc8c6[nH]c6ccccc86)C7)c(OC)cc5N(C)[C@H]4[C@@](O)(C(=O)OC)[C@@H]1OC(C)=O)[C@@H]32 [analog n° 331, C-16' epi-C-20'-deoxy-C-20'-deethylvinblastine]","Maximum sensitization of parental cells by modulator, drug VCR",RCC-2 cells [6],2.0
same,"Modulator potency in MDR cells (minimal concentration restoring parental drug sensitivity), ADM","S180/A10 cells [7]; ADM, drug resistance level 90",no effect
same,"Modulator potency in MDR cells (minimal concentration restoring parental drug sensitivity), VBL","S180/A10 cells [7]; VBL, drug resistance level 10",34. μM
same,MNTC at 72 h,[8],20 µM
same,IC50,[9],≥ 5000 nM
same,"Maximum sensitization of parental cells by modulator, drug ADM",RCC-5 cells [10],3.5
same,"Maximum sensitization of parental cells by modulator, drug VBL",RCC-5 cells [10],1.0
same,"Maximum sensitization of parental cells by modulator, drug VCR",RCC-5 cells [10],2.0
same,MNTC at 72 h,[11],10 µM
same,"Modulator potency in MDR cells (minimal concentration restoring parental drug sensitivity), VBL","S180/A3 cells [12]; VBL, drug resistance level 3",5000 nM
same,"Modulator potency in MDR cells (minimal concentration restoring parental drug sensitivity), VCR","S180/A3 cells [12]; VCR, drug resistance level 7",10. μM
same,"Maximum sensitization of parental cells by modulator, drug ADM","S180 cells, parental [13]",3.4
same,"Maximum sensitization of parental cells by modulator, drug VBL","S180 cells, parental [13]",1.0
same,"Maximum sensitization of parental cells by modulator, drug VCR","S180 cells, parental [13]",2.5
same,restoration of parental drug sensitivity in MDR cells (in words),[14],"full restoration of parental drug sensitivity was achieved for VBL and low level VCR resistance, only"
same,modulation of intrinsic cellular resistance to ADM and/or VCR (in words),"[15]; ADM, VCR",modulated intrinsic cellular resistance to ADM and/or VCR
same,effect on the sensitivity of parental cells to VBL (in words),[15]; VBL,less effect on the sensitivity of parental cells to VBL
same,MNTC at 72 h,[16],50 µM
